Source: US6001389A, “Compositions containing biologically active silicon” (priority 1997, dated 1999)

Experiments:
desquamine = assay: desquamine-like activity of an epidermic extract (hydrolysis of synthetic specific substrate of tPA); assay type: biochemical
Method: Effect of a diethylphosphatoethyltrisilanol's precursor, the diethylphosphatoethyltriethoxysilane, on the "desquame-like" activity of an epidermic extract.
Desquamine is obtained from an epidermic extract according to the Brysk and al (1994) method. The desquamine activity is evaluated by its ability to hydrolyze the synthetic specific substrate of the tPA for which it has a very strong affinity.

[1] = tested on: collagenase type activity of human chondrocytes; assay: collagenase type enzymatic activity of human chondrocytes culture (Cawston and Barrett method); assay type: cell-based; conditions: no IL-1
Method: Effect of a diethylphosphatoethyltrisilanol's precursor, the diethylphosphatoethyltriethoxysilane, on the collagenase type activity of human chondrocytes culture.
Chondrocytes cultures are carried out from human cartilages sampled on cadavers 12 hours after the death. In aqueous buffered medium (pH 7.0-7.4), the diethylphosphatoethyltriethoxysilane releases the corresponding diethylphosphatoethyltrisilanol, which is the active silanol. The collagenase type enzymatic activity of these chondrocytes cultures is quantified following the Cawston and Barrett method.

IL-6 of osteoblasts = assay: IL-6 level of osteoblasts (ELISA); assay type: cell-based, human
Method: Effect of a diethylphosphatoethyltrisilanol's precursor, the diethylphosphatoethyltriethoxysilane, on the IL-6 activity of osteoblasts.
Osteoblasts cultures are carried out from human bones sampled on cadavers 12 hours after the death. In aqueous buffered medium (pH 7.0-7.4), the diethylphosphatoethyltriethoxysilane releases the corresponding diethylphosphatoethyltrisilanol, which is the active silanol. IL-6 is quantified by the ELISA technique.

[2] = tested on: collagenase type activity of human chondrocytes; assay: collagenase type enzymatic activity of human chondrocytes cultures after IL-1 induction (Cawston and Barrett method); assay type: cell-based; conditions: after IL-1 treatment
Method: Effect of a diethylphosphatoethyltrisilanol's precursor, the diethylphosphatoethyltriethoxysilane, on the collagenase type activity of human chondrocytes cultures after IL-1 induction.
Chondrocytes cultures are carried out from human cartilages sampled on cadavers 12 hours after the death. In aqueous buffered medium (pH 7.0-7.4), the diethylphosphatoethyltriethoxysilane releases the corresponding diethylphosphatoethyltrisilanol, which is the active silanol. The collagenase type enzymatic activity of these chondrocytes cultures is quantified following the Cawston and Barrett method after previous treatment of the cultures by IL-1.

[3] = tested on: stromelysine type activity of human chondrocytes; assay: stromelysine type enzymatic activity of human chondrocytes culture (digestion of casein coupled with resorufine); assay type: cell-based; conditions: no IL-1
Method: Effect of a diethylphosphatoethyltrisilanol's precursor, the diethylphosphatoethyltriethoxysilane, on the stromelysine type activity of human chondrocytes culture.
Chondrocytes cultures are carried out from human cartilages sampled on cadavers 12 hours after the death. In aqueous buffered medium (pH 7.0-7.4), the diethylphosphatoethyltriethoxysilane releases the corresponding diethylphosphatoethyltrisilanol, which is the active silanol. The stromelysine type enzymatic activity of these chondrocytes cultures is quantified by the method of digestion of casein coupled with resorufine.

[4] = tested on: osteoblasts alkaline phosphatase; assay: synthetic activity of osteoblasts (alkaline phosphatase activity); assay type: cell-based, human
Method: Effect of a diethylphosphatoethyltrisilanol's precursor, the diethylphosphatoethyltriethoxysilane, on the synthetic activity of osteoblasts.
Osteoblasts cultures are carried out from human bones sampled on cadavers 12 hours after the death. In aqueous buffered medium (pH 7.0-7.4), the diethylphosphatoethyltriethoxysilane releases the corresponding diethylphosphatoethyltrisilanol, which is the active silanol. The synthetic activity of these osteoblasts is quantified by the measure of the alkaline phosphatase activity.

[5] = tested on: stromelysine type activity of human chondrocytes; assay: stromelysine type enzymatic activity of human chondrocytes culture after IL-1 induction (digestion of casein coupled with resorufine); assay type: cell-based; conditions: after IL-1 treatment
Method: Effect of a diethylphosphatoethyltrisilanol's precursor, the diethylphosphatoethyltriethoxysilane, on the stromelysine type activity of human chondrocytes culture after IL-1 induction.
Human chondrocytes cultures are carried out from human cartilages sampled on cadavers 12 hours after the death. In aqueous buffered medium (pH 7.0-7.4), the diethylphosphatoethyltriethoxysilane releases the corresponding diethylphosphatoethyltrisilanol, which is the active silanol. The stromelysine type enzymatic activity of these chondrocytes cultures is quantified, after previous treatment of cultures with IL-1, by the method of digestion of casein coupled with resorufine.

[6] = tested on: chymotrypsine-like activity of epidermic extract; assay: chymotrypsine-like activity of an epidermic extract (BTEE degradation); assay type: biochemical
Method: Effect of a diethylphosphatoethyltrisilanol's precursor, the diethylphosphatoethyltriethoxysilane, on the chymotrypsine type activity of an epidermic extract.
After sampling from a cutaneous tissue, the epidermis is cut then put in an appropriate buffered solution. The solution is homogenized with Ultra Turax (40 C.) until a satisfying epidermic extract is obtained. The chymotrypsine-like activity of this extract is assessed by the measure of the N alpha-Benzoyl-L-Tyrosine Ethyl Ester (BTEE) degradation (specific synthetic substrate).

Compound | effect on "desquamine-like" activity of the epidermic extract, in words (desquamine) | inhibition of the "desquamine-like" activity of the epidermic extract (desquamine; 300 μg/ml) | inhibition of "collagenase-like" activity of the chondrocytes ([1]; 500 μg/ml) | effect on "collagenase-like" activity of the chondrocytes, in words [1] | effect on osteoblasts IL-6 level, in words (IL-6 of osteoblasts) | decrease of the osteoblasts IL-6 level (inhibition) (IL-6 of osteoblasts; 100 μg/ml) | inhibition of "collagenase-like" activity of the chondrocytes ([2]; 500 μg/ml) | effect on "collagenase-like" activity of the chondrocytes, in words [2] | inhibition of "collagenase-like" activity of the chondrocytes (stromelysine type activity test) ([3]; 500 μg/ml) | effect on "collagenase-like" activity of the chondrocytes (stromelysine type activity test), in words [3] | effect on osteoblasts alkaline phosphatases activity, in words [4] | increase of the osteoblasts alkaline phosphatases activity (printed "inhibition") ([4]; 100 μg/ml) | inhibition of "collagenase-like" activity of the chondrocytes (stromelysine type activity test) ([5]; 500 μg/ml) | effect on "collagenase-like" activity of the chondrocytes (stromelysine type activity test), in words [5] | effect on "chymotrypsine-like" activity of the epidermic extract, in words [6] | inhibition of "chymotrypsine-like" activity of the epidermic extract ([6]; 400 μg/ml (printed 400 μ0 g/ml))
C[Si](O)(O)O [CH3 Si(OH)3] | dose-dependent inhibition | 25% |  |  |  |  |  |  |  |  |  |  |  |  |  | 
CCOP(=O)(CC[Si](O)(O)O)OCC [diethylphosphatoethyltrisilanol] |  |  | 30% | dose-dependent decrease | dose-dependent decrease | -49% | 21% | dose-dependent decrease | 37% | dose-dependent decrease | dose-dependent increase | +24% | 18% | dose-dependent decrease | dose-dependant decrease | 27%
